For data set [1] the following is noted: Br. J. Clin. Pharmac., 1993, 36, 125-127; cited from earlier work.
Data set [2] in a line: Clinical trials with dronedarone: serum creatinine levels. The class given is in vivo. The procedure:
The instant invention therefore relates to a method of managing the risk of an increased morbidity and mortality rate in patients treated by an association of dronedarone or one of its pharmaceutically acceptable salts and of at least a compound B selected from ACE inhibitors, angiotensin II receptor antagonists and potassium sparing diuretics. Said method is performed by performing the following steps: • a) initially measuring serum creatinine levels, such as within one week after initiation of treatment with dronedarone, which provides a reference level, • b) monitoring serum creatinine levels at regular intervals during treatment of the patient by the compound B (as recommended in the labelling of compound B), • c) if the serum creatinine levels increases above the reference level, clinical judgement should be made to determine if the increase is due to dronedarone, to compound B or to another cause, • d) to help clinical judgment and evaluate if the increase is due to dronedarone, dronedarone can be temporarily interrupted.
Concerning step a) of the methods of the invention, as mentioned before, in most patients with atrial fibrillation or atrial flutter the maximal increase in creatinine levels, compared to the level before administration of dronedarone, was smaller than 30%, with a mean increase ranging from 10 to 15% or more. Then during the treatment with dronedarone, mean creatinine levels remain stable, this corresponds to a plateau.

A short description of data set [3]: Specific study in healthy subjects: renal handling of creatinine. The format is in vivo.
A short description of data set [4]: ANDROMEDA (EFC4966) clinical trial in patients with a recent severe episode of Congestive Heart failure. The format is in vivo. As to conditions: 400 mg BID. The procedure:
Despite the equal distribution of treatment with ACE inhibitors/AII receptor antagonists at baseline, concomitant treatment with these drugs became unbalanced during the course of the ANDROMEDA study, as more patients in the dronedarone 400 mg BID group discontinued these treatments and fewer started them (table 2).
In the dronedarone 400 mg BID group, 14 of 41 patients who discontinued ACE/AII experienced “blood creatinine increased” or “renal impairment” adverse events, versus none among the 18 patients taking placebo in this category. This observation supports the hypothesis that an increase in serum creatinine observed in patients taking dronedarone may have led investigators to discontinue ACE/AII treatment (table 4).

The source of these data is patent US20100016423A1, “USE OF DRONEDARONE FOR THE TREATMENT OF PATIENTS WITH ARRHYTHMIA AND HAVING AN INCREASE OF CREATININE LEVEL DUE TO DRONEDARONE ADMINISTRATION” (SANOFI-AVENTIS, priority 2008, published 2010).

Regarding `CCCCc1oc2ccccc2c1C(=O)c1cc(I)c(OCCN(CC)CC)c(I)c1` [amiodarone], in data set [1], the “tubular secretion of creatinine” value is reported as “decrease in the tubular secretion of creatinine”.
For the compound `CN/C(=N/CCSCc1nc[nH]c1C)NC#N` [cimetidine], the “tubular secretion of creatinine” value in data set [1] is reported as “decrease in the tubular secretion of creatinine”.
For `CCCCc1oc2ccc(NS(C)(=O)=O)cc2c1C(=O)c1ccc(OCCCN(CCCC)CCCC)cc1` [dronedarone, 2-n-butyl-3-[4-(3-di-n-butylaminopropoxy)benzoyl]-5-methylsulfonamido-benzofuran], in data set [2] (administration of dronedarone in clinical trials), the “change in serum creatinine levels of the patient” value is “slight increase”. In addition, the “return of creatinine levels to baseline after treatment discontinuation” value in data set [2] (after treatment discontinuation) was “within three days”. The “time of occurrence of creatinine increase after treatment initiation” value in data set [2] (after treatment initiation) is reported as “within two days”. Further, in data set [2] (demonstrated in another clinical trial), the “return of creatinine to baseline after temporary interruption of dronedarone” value was at most 5 days. The “creatinine levels during treatment” value in data set [2] (during treatment) was “remained stable”. The “maximal increase in creatinine levels compared to the level before administration” value in data set [2] (most patients with atrial fibrillation or atrial flutter) is on record as “smaller than 30%”. Further, in data set [3], the “effect on creatinine secretion at the tubular level” value is on record as “inhibition of creatinine secretion at the tubular level”, the “effect on glomerular filtration” value is recorded as “no effect” and the “effect on renal blood flow” value is given as “no effect”. Besides, the “patients who died among those who never interrupted ACE inhibitors/AII receptor antagonists” value in data set [4] turned out to be 4%. Also, in data set [4] (of 41 patients who discontinued ACE/AII), the “patients who discontinued ACE/AII and experienced blood creatinine increased or renal impairment adverse events” value is on record as 14 patients.
Consider `COc1cc(Cc2cnc(N)nc2N)cc(OC)c1OC` [trimethoprim], for which, in data set [1], the “tubular secretion of creatinine” value is listed as “decrease in the tubular secretion of creatinine”.
